From publication PMC5451006, “Inhibition of insect olfactory behavior by an airborne antagonist of the insect odorant receptor co-receptor subunit” (PLoS ONE, 2017)

Columns and labels:
Assay type in all cases: cell-based
[1] = biological target: T1, Agam\Orco+Agam\Or28 (Anopheles gambiae, UniProt Q7QCC7); assay: two-electrode voltage clamp, Xenopus oocytes, single concentration; conditions: antagonist vs 40 μM acetophenone (EC50 concentration); allosteric via Orco; pH 7.4, -70 mV
T1 construct: heteromeric OR co-expressed in Xenopus laevis oocytes; stoichiometry unknown; with Odorant receptor 28
T1 sequence (Q7QCC7 1-478): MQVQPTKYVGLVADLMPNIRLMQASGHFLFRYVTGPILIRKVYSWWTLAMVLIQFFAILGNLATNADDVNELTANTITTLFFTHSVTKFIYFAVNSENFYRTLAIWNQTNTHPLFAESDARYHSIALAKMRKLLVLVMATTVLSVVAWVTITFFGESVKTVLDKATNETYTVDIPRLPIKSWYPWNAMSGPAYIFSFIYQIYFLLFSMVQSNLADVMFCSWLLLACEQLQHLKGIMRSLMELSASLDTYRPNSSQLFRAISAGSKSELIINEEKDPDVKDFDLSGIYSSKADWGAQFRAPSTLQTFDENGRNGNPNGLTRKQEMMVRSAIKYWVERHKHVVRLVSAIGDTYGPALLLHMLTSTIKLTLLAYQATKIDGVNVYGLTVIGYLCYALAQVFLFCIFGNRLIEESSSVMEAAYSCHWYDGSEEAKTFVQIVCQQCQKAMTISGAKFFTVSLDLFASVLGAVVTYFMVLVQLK

[2] = biological target: T2, Dmel\Orco (Drosophila melanogaster, UniProt Q9VNB5); assay: as above; conditions: antagonist vs 30 μM OLC12; homomeric Orco; pH 7.4, -70 mV
T2 construct: homomeric Orco channel, expressed alone in Xenopus laevis oocytes
T2 sequence (Q9VNB5 1-486): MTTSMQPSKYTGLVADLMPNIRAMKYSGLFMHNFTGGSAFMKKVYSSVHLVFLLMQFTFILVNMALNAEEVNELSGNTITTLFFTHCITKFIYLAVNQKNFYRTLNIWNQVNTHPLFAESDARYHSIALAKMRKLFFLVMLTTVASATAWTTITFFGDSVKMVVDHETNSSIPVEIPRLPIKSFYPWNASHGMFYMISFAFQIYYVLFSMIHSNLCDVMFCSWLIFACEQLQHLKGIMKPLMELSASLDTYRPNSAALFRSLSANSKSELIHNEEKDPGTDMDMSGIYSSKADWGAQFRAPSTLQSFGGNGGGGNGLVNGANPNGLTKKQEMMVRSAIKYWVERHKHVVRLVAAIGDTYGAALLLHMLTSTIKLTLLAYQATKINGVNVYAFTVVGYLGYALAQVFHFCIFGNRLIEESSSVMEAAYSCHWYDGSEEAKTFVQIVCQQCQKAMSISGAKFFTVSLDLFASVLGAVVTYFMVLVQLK
Text: two-electrode voltage clamp, Xenopus oocytes, single concentration on Dmel\Orco | OX1w inhibition of homomeric Orco channels. Oocytes expressing Dmel\Orco, Cqui\Orco or Agam\Orco

[3] = biological target: T3, Cqui\Orco (Culex quinquefasciatus, UniProt Z9TAD8G4U6); assay: as above; conditions: antagonist vs 30 μM OLC12; homomeric Orco; pH 7.4, -70 mV
T3 construct: homomeric Orco channel, expressed alone in Xenopus laevis oocytes
T3 sequence (Z9TAD8G4U6 1-480): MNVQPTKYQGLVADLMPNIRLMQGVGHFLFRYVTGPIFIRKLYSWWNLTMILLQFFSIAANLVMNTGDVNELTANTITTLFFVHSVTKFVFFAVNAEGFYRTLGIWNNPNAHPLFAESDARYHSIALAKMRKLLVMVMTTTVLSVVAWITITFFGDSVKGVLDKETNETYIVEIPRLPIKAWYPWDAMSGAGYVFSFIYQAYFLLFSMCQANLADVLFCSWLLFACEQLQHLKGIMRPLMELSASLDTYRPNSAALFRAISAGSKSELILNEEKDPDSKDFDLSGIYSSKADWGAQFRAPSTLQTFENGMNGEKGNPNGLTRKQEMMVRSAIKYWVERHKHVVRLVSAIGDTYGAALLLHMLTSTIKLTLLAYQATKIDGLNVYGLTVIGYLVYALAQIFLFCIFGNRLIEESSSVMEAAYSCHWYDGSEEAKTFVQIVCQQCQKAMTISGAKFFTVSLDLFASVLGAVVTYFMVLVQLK
Text: two-electrode voltage clamp, Xenopus oocytes, single concentration on Cqui\Orco | OX1w inhibition of homomeric Orco channels. Oocytes expressing Dmel\Orco, Cqui\Orco or Agam\Orco

[4] = biological target: T4, Agam\Orco+Agam\Or39 (Anopheles gambiae, UniProt Q7QCC7); assay: as above; conditions: antagonist vs 10 μM 6-methyl-5-hepten-2-one (EC50 concentration); allosteric via Orco; pH 7.4, -70 mV
T4 construct: heteromeric OR co-expressed in Xenopus laevis oocytes; stoichiometry unknown; with Odorant receptor 39
T4 sequence (Q7QCC7 1-478): T1 sequence (Q7QCC7 1-478)

[5] = biological target: T5, Agam\Orco+Agam\Or27 (Anopheles gambiae, UniProt Q7QCC7); assay: as above; conditions: antagonist vs 3 μM L-fenchone (EC50 concentration); allosteric via Orco; pH 7.4, -70 mV
T5 construct: heteromeric OR co-expressed in Xenopus laevis oocytes; stoichiometry unknown; with Odorant receptor 27
T5 sequence (Q7QCC7 1-478): T1 sequence (Q7QCC7 1-478)

[6] = biological target: T6, Agam\Orco+Agam\Or15 (Anopheles gambiae, UniProt Q7QCC7); assay: as above; conditions: antagonist vs 18 μM acetophenone (EC50 concentration); allosteric via Orco; pH 7.4, -70 mV
T6 construct: heteromeric OR co-expressed in Xenopus laevis oocytes; stoichiometry unknown; with Odorant receptor 15
T6 sequence (Q7QCC7 1-478): T1 sequence (Q7QCC7 1-478)

[7] = biological target: T7, Agam\Orco (Anopheles gambiae, UniProt Q7QCC7); assay: as above; conditions: antagonist vs 30 μM OLC12; homomeric Orco; pH 7.4, -70 mV
T7 construct: homomeric Orco channel, expressed alone in Xenopus laevis oocytes
T7 sequence (Q7QCC7 1-478): T1 sequence (Q7QCC7 1-478)
Text: two-electrode voltage clamp, Xenopus oocytes, single concentration on Agam\Orco | OX1w inhibition of homomeric Orco channels. Oocytes expressing Dmel\Orco, Cqui\Orco or Agam\Orco

[8] = biological target: T8, Dmel\Orco+Dmel\Or35a (Drosophila melanogaster, UniProt Q9VNB5); assay: two-electrode voltage clamp, Xenopus oocytes, concentration-inhibition
T8 construct: heteromeric OR, cRNAs co-expressed in Xenopus laevis oocytes; stoichiometry unknown; with Odorant receptor 35a
T8 sequence (Q9VNB5 1-486): T2 sequence (Q9VNB5 1-486)
T8 sequence (Q9V3Q2 1-409 partner): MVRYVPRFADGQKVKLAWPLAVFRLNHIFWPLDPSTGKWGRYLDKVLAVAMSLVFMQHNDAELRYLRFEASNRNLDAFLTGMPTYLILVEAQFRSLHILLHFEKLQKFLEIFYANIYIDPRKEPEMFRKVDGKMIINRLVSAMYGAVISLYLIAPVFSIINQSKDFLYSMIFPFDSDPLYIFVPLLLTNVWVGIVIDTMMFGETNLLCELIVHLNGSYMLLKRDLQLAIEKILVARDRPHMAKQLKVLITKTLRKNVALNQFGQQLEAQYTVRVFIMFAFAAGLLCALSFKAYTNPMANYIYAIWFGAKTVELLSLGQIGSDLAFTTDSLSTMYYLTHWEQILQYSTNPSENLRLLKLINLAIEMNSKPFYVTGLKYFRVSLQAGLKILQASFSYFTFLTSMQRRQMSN

[9] = biological target: T9, Agam\Orco+Agam\Or65 (Anopheles gambiae, UniProt Q7QCC7); assay: two-electrode voltage clamp, Xenopus oocytes, single concentration; conditions: antagonist vs 100 nM eugenol (EC50 concentration); allosteric via Orco; pH 7.4, -70 mV
T9 construct: heteromeric OR co-expressed in Xenopus laevis oocytes; stoichiometry unknown; with Odorant receptor 65
T9 sequence (Q7QCC7 1-478): T1 sequence (Q7QCC7 1-478)

[10] = biological target: T10, Agam\Orco+Agam\Or31 (Anopheles gambiae, UniProt Q7QCC7); assay: as above; conditions: antagonist vs 70 μM geranyl acetate (EC50 concentration); allosteric via Orco; pH 7.4, -70 mV
T10 construct: heteromeric OR co-expressed in Xenopus laevis oocytes; stoichiometry unknown; with Odorant receptor 31
T10 sequence (Q7QCC7 1-478): T1 sequence (Q7QCC7 1-478)

[11] = biological target: T11, Cqui\Orco+Cqui\Or21 (Culex quinquefasciatus, UniProt Z9TAD8G4U6); assay: two-electrode voltage clamp, Xenopus oocytes, concentration-inhibition; conditions: antagonist vs 3 μM OLC12 (Orco agonist), -70 mV, pH 7.4, 90 sec pre-application
T11 construct: heteromeric OR, cRNAs from pGEMHE co-expressed in Xenopus laevis oocytes; stoichiometry unknown; with Odorant receptor 21
T11 sequence (Z9TAD8G4U6 1-480): T3 sequence (Z9TAD8G4U6 1-480)

SMILES | % response remaining at 100 μM (normalized to sham) [1] | % response remaining at 100 μM [2] | % response remaining at 100 μM [3] | % response remaining at 100 μM (normalized to sham) [4] | % response remaining at 100 μM (normalized to sham) [5] | % response remaining at 100 μM (normalized to sham) [6] | % response remaining at 100 μM [7] | IC50 [8] | % response remaining at 100 μM (normalized to sham) [9] | % response remaining at 100 μM (normalized to sham) [10] | IC50 [11]
O=C(Nc1ccc(F)cc1)c1sccc1Cl [OX1w, 3-chloro-N-(4-fluorophenyl)-2-thiophenecarboxamide] | 8 ± 1% | OX1w inhibition of homomeric Orco channels. Oocytes expressing Dmel\Orco, Cqui\Orco or Agam\Orco | OX1w inhibition of homomeric Orco channels. Oocytes expressing Dmel\Orco, Cqui\Orco or Agam\Orco | OX1w was able to inhibit odorant activation of each of the tested ORs | OX1w was able to inhibit odorant activation of each of the tested ORs | OX1w was able to inhibit odorant activation of each of the tested ORs | OX1w inhibition of homomeric Orco channels. Oocytes expressing Dmel\Orco, Cqui\Orco or Agam\Orco | 57 ± 5 µM | 78 ± 5% | OX1w was able to inhibit odorant activation of each of the tested ORs | 4 ± 1 µM
O=C(Nc1ccc(SC(F)F)cc1)c1cccs1 [OX1x, N-(4-((difluoromethyl)thio)phenyl)-2-thiophenecarboxamide] |  |  |  |  |  |  |  | 32 ± 6 µM |  |  | 15 ± 1 µM
O=C(Nc1cc(F)cc(F)c1)c1cccs1 [OX1v, N-(3,5-difluorophenyl)-2-thiophenecarboxamide] |  |  |  |  |  |  |  | 32 ± 4 µM |  |  | 20 ± 3 µM
